Experiments:
Test in all cases: Growth inhibitory activity of compounds on BaF3 cell lines stably transfected with kinase (MTS, 48 h)
Assay type in all cases: cell-based
[1] = target: T1, various mutants of kinase EGFR (BaF3 cell lines stably transfected with kinase) (Homo sapiens, UniProt P00533, T790M/C797S, form not given); details: BaF3 cells stably transfected with EGFR Δ19Del/T790M/C797S, read-out: IC50, growth inhibition, Δ19Del/T790M/C797S
T1 construct: other: BaF3 cells stably transfected with EGFR Δ19Del/T790M/C797S; MTS, 48; other: BaF3 cell line stably transfected with EGFR Δ19Del/T790M/C7
How it was run: (§1)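 First, cells were seeded and treated with an eight-point threefold dilution series starting at 10 µM (0.1% DMSO). After 48 h at 37 °C, MTS reagent was added for 1-4 h before absorbance at 490 nm. Inhibition rates gave the IC50.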

[2] = target: T2, various mutants of kinase EGFR (BaF3 cell lines stably transfected with kinase) (Homo sapiens, UniProt P00533, C797S/L858R/T790M); details: BaF3 cells stably transfected with EGFR L858R/T790M/C797S, read-out: IC50, growth inhibition, L858R/T790M/C797S
T2 construct: expressed in transfected cells; host or cells: BaF3
T2 sequence (P00533 25-1210 T790M/C797S/L858R): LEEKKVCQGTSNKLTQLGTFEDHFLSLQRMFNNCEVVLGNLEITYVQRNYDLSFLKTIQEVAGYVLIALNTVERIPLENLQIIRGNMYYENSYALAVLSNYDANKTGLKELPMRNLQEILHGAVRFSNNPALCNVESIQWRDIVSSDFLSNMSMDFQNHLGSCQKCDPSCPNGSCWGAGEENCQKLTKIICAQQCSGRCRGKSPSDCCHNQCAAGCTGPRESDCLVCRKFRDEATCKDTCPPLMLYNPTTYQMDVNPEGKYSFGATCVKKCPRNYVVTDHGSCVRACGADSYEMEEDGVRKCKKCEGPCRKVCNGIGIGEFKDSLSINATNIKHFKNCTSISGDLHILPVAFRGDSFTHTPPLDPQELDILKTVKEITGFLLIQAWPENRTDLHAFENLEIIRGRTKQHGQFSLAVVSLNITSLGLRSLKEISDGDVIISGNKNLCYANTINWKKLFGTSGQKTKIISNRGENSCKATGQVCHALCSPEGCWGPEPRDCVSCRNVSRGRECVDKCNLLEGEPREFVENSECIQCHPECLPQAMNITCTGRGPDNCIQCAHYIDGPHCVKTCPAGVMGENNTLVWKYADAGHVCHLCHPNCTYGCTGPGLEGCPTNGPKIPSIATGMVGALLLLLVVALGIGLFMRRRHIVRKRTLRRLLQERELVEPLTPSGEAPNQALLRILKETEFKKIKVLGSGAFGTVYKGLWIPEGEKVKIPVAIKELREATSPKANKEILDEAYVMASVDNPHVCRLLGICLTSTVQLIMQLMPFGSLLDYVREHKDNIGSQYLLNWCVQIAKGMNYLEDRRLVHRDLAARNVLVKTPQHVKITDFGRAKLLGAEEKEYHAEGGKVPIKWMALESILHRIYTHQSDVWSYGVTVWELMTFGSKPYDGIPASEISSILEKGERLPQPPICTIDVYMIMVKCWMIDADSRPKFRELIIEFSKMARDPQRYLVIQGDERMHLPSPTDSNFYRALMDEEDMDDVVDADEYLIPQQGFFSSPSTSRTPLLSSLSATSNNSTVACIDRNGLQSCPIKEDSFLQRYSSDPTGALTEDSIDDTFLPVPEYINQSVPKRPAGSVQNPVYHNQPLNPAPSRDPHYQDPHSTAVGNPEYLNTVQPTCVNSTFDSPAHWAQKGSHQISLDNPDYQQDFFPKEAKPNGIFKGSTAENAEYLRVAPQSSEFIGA
How it was run: as §1

[3] = target: T3, various mutants of kinase EGFR (BaF3 cell lines stably transfected with kinase) (Homo sapiens, UniProt P00533, L858R); details: BaF3 cells stably transfected with EGFR L858R, read-out: IC50, growth inhibition, L858R
T3 construct: expressed in transfected cells; host or cells: BaF3
T3 sequence (P00533 25-1210 L858R): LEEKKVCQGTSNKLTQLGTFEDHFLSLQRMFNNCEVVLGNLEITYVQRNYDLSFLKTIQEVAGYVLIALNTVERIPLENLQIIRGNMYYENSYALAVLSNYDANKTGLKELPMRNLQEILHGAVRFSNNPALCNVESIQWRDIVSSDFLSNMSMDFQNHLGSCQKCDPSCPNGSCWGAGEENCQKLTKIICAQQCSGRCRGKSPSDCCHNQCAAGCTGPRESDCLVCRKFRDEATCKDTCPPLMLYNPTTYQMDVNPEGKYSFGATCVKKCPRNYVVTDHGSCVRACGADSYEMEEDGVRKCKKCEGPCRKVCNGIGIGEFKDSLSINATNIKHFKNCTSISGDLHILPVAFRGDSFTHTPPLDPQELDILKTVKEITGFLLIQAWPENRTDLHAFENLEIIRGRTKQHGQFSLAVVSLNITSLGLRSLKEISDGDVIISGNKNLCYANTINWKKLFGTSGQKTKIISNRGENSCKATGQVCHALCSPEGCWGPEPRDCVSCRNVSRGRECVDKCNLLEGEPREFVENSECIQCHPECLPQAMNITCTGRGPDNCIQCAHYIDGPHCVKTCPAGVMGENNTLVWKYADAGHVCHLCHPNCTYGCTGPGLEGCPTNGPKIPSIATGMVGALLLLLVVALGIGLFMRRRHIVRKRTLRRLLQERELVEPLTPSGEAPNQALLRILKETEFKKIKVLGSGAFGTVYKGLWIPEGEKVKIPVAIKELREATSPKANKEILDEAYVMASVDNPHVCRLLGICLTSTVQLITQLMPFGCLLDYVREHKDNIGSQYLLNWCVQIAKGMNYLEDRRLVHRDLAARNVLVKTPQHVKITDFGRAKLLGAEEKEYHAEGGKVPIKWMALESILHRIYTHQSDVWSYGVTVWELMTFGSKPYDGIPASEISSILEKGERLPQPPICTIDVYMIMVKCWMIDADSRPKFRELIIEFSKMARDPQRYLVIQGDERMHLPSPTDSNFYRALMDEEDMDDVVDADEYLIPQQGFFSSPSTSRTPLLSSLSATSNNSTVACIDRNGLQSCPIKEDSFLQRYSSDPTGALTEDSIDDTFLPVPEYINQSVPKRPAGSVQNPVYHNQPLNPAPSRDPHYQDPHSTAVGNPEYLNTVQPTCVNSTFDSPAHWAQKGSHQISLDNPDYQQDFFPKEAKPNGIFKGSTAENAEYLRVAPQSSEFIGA
How it was run: as §1

[4] = target: T4, various mutants of kinase EGFR (BaF3 cell lines stably transfected with kinase) (Homo sapiens, UniProt P00533, L858R/T790M); details: BaF3 cells stably transfected with EGFR L858R/T790M, read-out: IC50, growth inhibition, L858R/T790M
T4 construct: expressed in transfected cells; host or cells: BaF3
T4 sequence (P00533 25-1210 T790M/L858R): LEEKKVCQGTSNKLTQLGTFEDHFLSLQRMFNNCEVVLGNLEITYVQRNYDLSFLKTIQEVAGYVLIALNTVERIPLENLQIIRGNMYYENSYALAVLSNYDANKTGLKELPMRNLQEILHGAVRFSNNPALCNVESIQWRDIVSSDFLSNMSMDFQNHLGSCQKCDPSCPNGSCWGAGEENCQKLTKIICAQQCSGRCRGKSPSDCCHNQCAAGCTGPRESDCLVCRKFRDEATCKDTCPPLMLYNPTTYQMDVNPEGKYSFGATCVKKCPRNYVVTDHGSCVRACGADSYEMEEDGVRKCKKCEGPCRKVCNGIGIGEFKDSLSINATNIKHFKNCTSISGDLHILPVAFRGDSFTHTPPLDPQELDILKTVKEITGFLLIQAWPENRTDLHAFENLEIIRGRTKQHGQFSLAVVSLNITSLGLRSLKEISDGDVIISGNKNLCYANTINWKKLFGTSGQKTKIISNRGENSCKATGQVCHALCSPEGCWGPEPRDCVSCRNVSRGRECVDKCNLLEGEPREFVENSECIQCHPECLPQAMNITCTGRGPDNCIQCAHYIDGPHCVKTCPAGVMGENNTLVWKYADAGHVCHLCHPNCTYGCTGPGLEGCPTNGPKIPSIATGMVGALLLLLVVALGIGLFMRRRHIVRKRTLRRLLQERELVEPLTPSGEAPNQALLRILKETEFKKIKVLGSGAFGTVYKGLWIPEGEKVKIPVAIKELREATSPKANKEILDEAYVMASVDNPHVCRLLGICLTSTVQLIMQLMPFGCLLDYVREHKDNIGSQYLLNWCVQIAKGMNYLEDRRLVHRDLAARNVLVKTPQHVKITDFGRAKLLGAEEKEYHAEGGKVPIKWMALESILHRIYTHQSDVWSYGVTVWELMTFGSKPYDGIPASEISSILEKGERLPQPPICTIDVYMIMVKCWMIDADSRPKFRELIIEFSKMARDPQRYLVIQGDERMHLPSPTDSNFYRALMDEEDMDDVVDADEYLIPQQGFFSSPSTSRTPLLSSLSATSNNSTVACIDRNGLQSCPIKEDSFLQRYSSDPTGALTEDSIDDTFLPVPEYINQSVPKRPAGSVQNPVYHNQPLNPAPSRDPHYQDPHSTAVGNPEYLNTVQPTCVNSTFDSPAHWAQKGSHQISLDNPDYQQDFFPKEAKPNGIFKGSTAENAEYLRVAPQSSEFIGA
How it was run: as §1

[5] = target: T5, various mutants of kinase EGFR (BaF3 cell lines stably transfected with kinase) (Homo sapiens, UniProt P00533, T790M, form not given); details: BaF3 cells stably transfected with EGFR Δ19Del/T790M, read-out: IC50, growth inhibition, Δ19Del/T790M
T5 construct: other: BaF3 cells stably transfected with EGFR Δ19Del/T790M; MTS, 48 h; other: BaF3 cell line stably transfected with EGFR Δ19Del/T790M; MTS, 48
T5 sequence (P00533 with tags, fused parts or gaps DEL746-750/T790M, form open): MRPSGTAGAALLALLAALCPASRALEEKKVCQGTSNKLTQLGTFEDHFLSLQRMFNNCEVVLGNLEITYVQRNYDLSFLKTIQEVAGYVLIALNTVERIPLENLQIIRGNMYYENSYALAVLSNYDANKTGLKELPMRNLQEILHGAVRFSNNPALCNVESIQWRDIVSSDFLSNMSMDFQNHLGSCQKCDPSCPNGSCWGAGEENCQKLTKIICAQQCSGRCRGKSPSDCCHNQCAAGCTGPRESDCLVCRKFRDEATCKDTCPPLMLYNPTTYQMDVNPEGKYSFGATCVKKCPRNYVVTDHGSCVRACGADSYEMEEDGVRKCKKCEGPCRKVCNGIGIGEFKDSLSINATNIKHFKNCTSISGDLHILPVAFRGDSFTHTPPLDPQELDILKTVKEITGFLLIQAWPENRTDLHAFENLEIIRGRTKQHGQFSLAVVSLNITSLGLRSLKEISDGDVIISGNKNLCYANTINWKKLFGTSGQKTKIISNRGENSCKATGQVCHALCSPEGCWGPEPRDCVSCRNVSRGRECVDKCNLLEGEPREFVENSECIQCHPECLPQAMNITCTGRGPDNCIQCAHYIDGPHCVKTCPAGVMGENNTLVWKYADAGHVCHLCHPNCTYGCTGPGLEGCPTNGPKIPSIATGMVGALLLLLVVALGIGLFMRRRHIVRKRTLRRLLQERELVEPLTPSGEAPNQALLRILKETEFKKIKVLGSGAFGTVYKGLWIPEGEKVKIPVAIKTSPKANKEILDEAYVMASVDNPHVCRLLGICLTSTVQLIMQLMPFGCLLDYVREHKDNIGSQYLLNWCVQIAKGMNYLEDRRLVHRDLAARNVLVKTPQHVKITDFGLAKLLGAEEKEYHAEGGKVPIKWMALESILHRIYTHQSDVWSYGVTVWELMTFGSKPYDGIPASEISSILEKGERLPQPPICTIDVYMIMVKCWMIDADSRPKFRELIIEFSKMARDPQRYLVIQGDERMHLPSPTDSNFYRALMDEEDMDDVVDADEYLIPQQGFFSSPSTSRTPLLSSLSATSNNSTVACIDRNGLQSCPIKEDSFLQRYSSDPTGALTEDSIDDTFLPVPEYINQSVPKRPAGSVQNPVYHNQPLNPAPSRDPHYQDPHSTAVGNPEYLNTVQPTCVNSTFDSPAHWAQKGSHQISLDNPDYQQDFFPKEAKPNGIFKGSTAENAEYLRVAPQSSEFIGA
How it was run: as §1

[6] = target: T6, various mutants of kinase EGFR (BaF3 cell lines stably transfected with kinase) (Homo sapiens, UniProt P00533); details: BaF3 cells stably transfected with EGFR Δ19Del, read-out: IC50, growth inhibition, Δ19Del
T6 construct: other: BaF3 cells stably transfected with EGFR Δ19Del; MTS, 48 h; other: BaF3 cell line stably transfected with EGFR Δ19Del
How it was run: as §1

| IC50 [1] [nM] | IC50 [2] [nM] | IC50 [3] [nM] | IC50 [4] [nM] | IC50 [5] [nM] | IC50 [6] [nM] | Compound |
| --- | --- | --- | --- | --- | --- | --- |
| 50 to 500 | 500 to 2500 | 500 to 2500 | 500 to 2500 | 500 to 2500 | 500 to 2500 | COc1nc(N2CCC(N3CCN(C)CC3)CC2)ccc1Nc1ncc(F)c(Nc2ccc3nccnc3c2N(C)S(C)(=O)=O)n1 [Compound I-175] |
| ≤ 50 | ≤ 50 | ≤ 50 | ≤ 50 | ≤ 50 | ≤ 50 | CCc1cc(Nc2ncc(F)c(Nc3ccc4nccnc4c3N(C)S(C)(=O)=O)n2)c(OC)nc1N1CCC(N2CCN(C)CC2)CC1 [Compound I-177] |
| 50 to 500 | 500 to 2500 | 50 to 500 | 500 to 2500 | 500 to 2500 | 50 to 500 | CN1CCN(C2CCN(c3ccc(Nc4ncc(F)c(Nc5ccc6nccnc6c5N(C)S(C)(=O)=O)n4)c(OC(F)(F)F)c3)CC2)CC1 [Compound I-178] |
| ≤ 50 | 50 to 500 | 50 to 500 | 50 to 500 | 50 to 500 | 50 to 500 | CCc1cc(Nc2ncc(F)c(Nc3ccc4nccnc4c3N(C)S(C)(=O)=O)n2)c(OC(F)(F)F)cc1N1CCC(N2CCN(C)CC2)CC1 [Compound I-179] |
| ≤ 50 | 50 to 500 | ≤ 50 | ≤ 50 | 50 to 500 | ≤ 50 | C=Cc1cc(Nc2ncc(F)c(Nc3ccc4nccnc4c3N(C)S(C)(=O)=O)n2)c(OC(F)(F)F)cc1N1CCC(N2CCN(C)CC2)CC1 [Compound I-180] |
| ≤ 50 | 50 to 500 | ≤ 50 | ≤ 50 | 50 to 500 | ≤ 50 | COc1cc(N2CCC(N3CCN(C)CC3)CC2)c(CC2CC2)cc1Nc1ncc(F)c(Nc2ccc3nccnc3c2N(C)S(C)(=O)=O)n1 [Compound I-181] |
| 500 to 2500 | 500 to 2500 | 500 to 2500 | 500 to 2500 | 500 to 2500 | 500 to 2500 | COc1cc(N2CCC(N3CCN(C)CC3)CC2)c(Cc2ccccc2)cc1Nc1ncc(F)c(Nc2ccc3nccnc3c2N(C)S(C)(=O)=O)n1 [Compound I-182] |
| ≤ 50 | ≤ 50 | ≤ 50 | ≤ 50 | 50 to 500 | ≤ 50 | COc1cc(N2CCC(N(C)C)CC2)c(C)cc1Nc1ncc(F)c(Nc2ccc3nccnc3c2N(C)S(C)(=O)=O)n1 [Compound I-183] |
| ≤ 50 | ≤ 50 | ≤ 50 | ≤ 50 | 50 to 500 | ≤ 50 | CCc1cc(Nc2ncc(F)c(Nc3ccc4nccnc4c3N(C)S(C)(=O)=O)n2)c(OC)cc1N1CCC(N(C)C)CC1 [Compound I-184] |
| ≤ 50 | 50 to 500 | ≤ 50 | 50 to 500 | 50 to 500 | 50 to 500 | COc1cc(N2CCN(C)CC2)c(C)cc1Nc1ncc(F)c(Nc2ccc3nccnc3c2N(C)S(C)(=O)=O)n1 [Compound I-185] |
| ≤ 50 | ≤ 50 | ≤ 50 | 50 to 500 | 50 to 500 | 50 to 500 | CCc1cc(Nc2ncc(F)c(Nc3ccc4nccnc4c3N(C)S(C)(=O)=O)n2)c(OC)cc1N1CCN(C)CC1 [Compound I-186] |
| 50 to 500 | 50 to 500 | 50 to 500 | 50 to 500 | 50 to 500 | ≤ 50 | COc1cc(N2CCC(N(C)C)C2)c(C)cc1Nc1ncc(F)c(Nc2ccc3nccnc3c2N(C)S(C)(=O)=O)n1 (stereo not drawn) [Compound I-187] |
| ≤ 50 | 50 to 500 | ≤ 50 | 50 to 500 | ≤ 50 | 50 to 500 | CCc1cc(Nc2ncc(F)c(Nc3ccc4nccnc4c3N(C)S(C)(=O)=O)n2)c(OC)cc1N1CCC(N(C)C)C1 (stereo not drawn) [Compound I-188] |
| ≤ 50 | 50 to 500 | 50 to 500 | ≤ 50 | ≤ 50 | 50 to 500 | CCc1cc(Nc2ncc([N+](=O)[O-])c(Nc3ccc4nccnc4c3N(C)S(C)(=O)=O)n2)c(OC)nc1N1CCC(N2CCN(C)CC2)CC1 [Compound I-190] |
| ≤ 50 | 50 to 500 | 50 to 500 | 50 to 500 | 50 to 500 | 50 to 500 | COc1cc(N2CCC(N3CCN(C)CC3)CC2)c(CC2CC2)cc1Nc1ncc([N+](=O)[O-])c(Nc2ccc3nccnc3c2N(C)S(C)(=O)=O)n1 [Compound I-191] |
| ≤ 50 | ≤ 50 | 50 to 500 | ≤ 50 | ≤ 50 | ≤ 50 | COc1cc(N2CCC(N(C)C)CC2)c(C)cc1Nc1ncc([N+](=O)[O-])c(Nc2ccc3nccnc3c2N(C)S(C)(=O)=O)n1 [Compound I-192] |
| ≤ 50 | ≤ 50 | ≤ 50 | ≤ 50 | ≤ 50 | ≤ 50 | CCc1cc(Nc2ncc([N+](=O)[O-])c(Nc3ccc4nccnc4c3N(C)S(C)(=O)=O)n2)c(OC)cc1N1CCC(N(C)C)CC1 [Compound I-193] |
| ≤ 50 | 50 to 500 | 50 to 500 | 50 to 500 | 50 to 500 | 50 to 500 | COc1cc(N2CCN(C)CC2)c(C)cc1Nc1ncc([N+](=O)[O-])c(Nc2ccc3nccnc3c2N(C)S(C)(=O)=O)n1 [Compound I-194] |
| ≤ 50 | 50 to 500 | 50 to 500 | 50 to 500 | 50 to 500 | 50 to 500 | COc1cc(N2CCC(N(C)C)C2)c(C)cc1Nc1ncc([N+](=O)[O-])c(Nc2ccc3nccnc3c2N(C)S(C)(=O)=O)n1 (stereo not drawn) [Compound I-195] |
| ≤ 50 | 50 to 500 | 50 to 500 | 50 to 500 | 50 to 500 | 50 to 500 | CCc1cc(Nc2ncc([N+](=O)[O-])c(Nc3ccc4nccnc4c3N(C)S(C)(=O)=O)n2)c(OC)cc1N1CCC(N(C)C)C1 (stereo not drawn) [Compound I-196] |
| ≤ 50 | 50 to 500 | 50 to 500 | 50 to 500 | 50 to 500 | 50 to 500 | COc1nc(N2CCC(N3CCN(C)CC3)CC2)ccc1Nc1ncc(C(F)(F)F)c(Nc2ccc3nccnc3c2N(C)S(C)(=O)=O)n1 [Compound I-197] |
| ≤ 50 | ≤ 50 | ≤ 50 | ≤ 50 | ≤ 50 | 50 to 500 | CCc1cc(Nc2ncc(C(F)(F)F)c(Nc3ccc4nccnc4c3N(C)S(C)(=O)=O)n2)c(OC)nc1N1CCC(N2CCN(C)CC2)CC1 [Compound I-199] |
| 50 to 500 | 50 to 500 | 50 to 500 | 50 to 500 | 50 to 500 | 50 to 500 | CN1CCN(C2CCN(c3ccc(Nc4ncc(C(F)(F)F)c(Nc5ccc6nccnc6c5N(C)S(C)(=O)=O)n4)c(OC(F)(F)F)c3)CC2)CC1 [Compound I-200] |
| ≤ 50 | 50 to 500 | 50 to 500 | 50 to 500 | 50 to 500 | 50 to 500 | CCc1cc(Nc2ncc(C(F)(F)F)c(Nc3ccc4nccnc4c3N(C)S(C)(=O)=O)n2)c(OC(F)(F)F)cc1N1CCC(N2CCN(C)CC2)CC1 [Compound I-201] |
| ≤ 50 | 50 to 500 | 50 to 500 | ≤ 50 | ≤ 50 | 50 to 500 | C=Cc1cc(Nc2ncc(C(F)(F)F)c(Nc3ccc4nccnc4c3N(C)S(C)(=O)=O)n2)c(OC(F)(F)F)cc1N1CCC(N2CCN(C)CC2)CC1 [Compound I-202] |
| ≤ 50 | 50 to 500 | 50 to 500 | ≤ 50 | ≤ 50 | 50 to 500 | COc1cc(N2CCC(N3CCN(C)CC3)CC2)c(CC2CC2)cc1Nc1ncc(C(F)(F)F)c(Nc2ccc3nccnc3c2N(C)S(C)(=O)=O)n1 [Compound I-203] |
| 500 to 2500 | 500 to 2500 | 500 to 2500 | 500 to 2500 | 500 to 2500 | 500 to 2500 | COc1cc(N2CCC(N3CCN(C)CC3)CC2)c(Cc2ccccc2)cc1Nc1ncc(C(F)(F)F)c(Nc2ccc3nccnc3c2N(C)S(C)(=O)=O)n1 [Compound I-204] |
| ≤ 50 | ≤ 50 | ≤ 50 | ≤ 50 | ≤ 50 | ≤ 50 | COc1cc(N2CCC(N(C)C)CC2)c(C)cc1Nc1ncc(C(F)(F)F)c(Nc2ccc3nccnc3c2N(C)S(C)(=O)=O)n1 [Compound I-205] |

From US20230310428A1, “EGFR INHIBITOR AND PREPARATION METHOD AND USE THEREOF” (HONGYUN BIOTECH CO., LTD., priority 2020, published 2023)
